What was measured:
H₂-receptor = molecular target: T1, H₂-receptor (Cavia porcellus, UniProt P47747); assay: Test B: H₂-receptor antagonism in isolated guinea-pig atrium; assay type: cell-based; conditions: test compound 1 x 10⁻⁶ g/ml; histamine (1 x 10⁻⁶ g/ml)-induced increase in beating rate, before and 30 minutes after dosing
T1 construct: from tissue; host or cells: isolated guinea-pig atrial strip
Protocol: Test B (H₂-receptor antagonism in isolated guinea-pig atrium):
The atrial strip isolated from guinea-pig was suspended under an initial tension 0.3 to 0.6 g in an organ bath containing Tyrode solution at 30°C, aerated 95%O₂-5%CO₂ gas. The beating rate and amplitude of contraction of the atrium were recorded by means of a transducer and a polygraph. Histamine (1 x 10⁻⁶ g/ml) was added to the bathing fluid and the increase in beating rate after dosing was measured. Addition of test compounds (1 x 10⁻⁶ g/ml) was made 30 minutes after washing out histamine. Inhibitory effect of test compound was calculated by comparing histamine-induced increases in beating rate before and 30 minutes after dosing with the test compounds.

[1] = tested on: lumen perfused stomach in anesthetized rats; assay: Test D: Gastric secretion from lumen perfused stomach in anesthetized rats (histamine-stimulated); assay type: in vivo, Sprague-Dawley rats; conditions: maximal inhibition of acid output; histamine 3 mg/kg/hr intravenous infusion; test compound 1 mg/kg intravenously
Protocol: Test D (Gastric secretion from lumen perfused stomach in anesthetized rats):
Male Sprague-Dawley rats weighing about 250 g were used. Rats were deprived of food but allowed free access to water for 24 hours. The animals were anesthetized with 1.25 g/kg urethane intraperitoneally. The abdomen was opened and the gastric lumen was perfused with saline throughout the experiment. The perfusate was titrated by an autotitrator with 25 mM sodium hydroxide as a titrant. Gastric secretion was stimulated by intravenous infusion with histamine (3 mg/kg/hr). After reaching plateau, test compound (1 mg/kg) was given intravenously. Drug effect was expressed as maximal inhibition by acid output.

male Sprague-Dawley rats = assay: Test C: Inhibition of stress ulcer (restraint and water immersion); assay type: in vivo; conditions: mean area of ulcers vs control animals; test compound 32 mg/kg orally; seven hours immobilized in water bath at 22°C
Protocol: Test C (Inhibition of stress ulcer):
Five male Sprague-Dawley rats, aged 7 weeks and weighing about 200 g were used per group for the study on stress ulcer after the fast for 24 hours. Each animal was immobilized in a restrain cage and immersed to a level of the xiphoid in a water bath kept 22°C. Each of the test compounds (32 mg/kg) suspended in 0.1% methylcellulose solution was administered orally just before the immobilization. Seven hours later, the animals were sacrificed and their stomachs were removed. The stomach was then fixed with 2% formalin. The area of ulcers was measured for each animal, and percentage of inhibition was calculated by comparing the mean area of ulcers (mm²) in the test animals with that in the control animals.

T1 sequence (P47747 whole entry): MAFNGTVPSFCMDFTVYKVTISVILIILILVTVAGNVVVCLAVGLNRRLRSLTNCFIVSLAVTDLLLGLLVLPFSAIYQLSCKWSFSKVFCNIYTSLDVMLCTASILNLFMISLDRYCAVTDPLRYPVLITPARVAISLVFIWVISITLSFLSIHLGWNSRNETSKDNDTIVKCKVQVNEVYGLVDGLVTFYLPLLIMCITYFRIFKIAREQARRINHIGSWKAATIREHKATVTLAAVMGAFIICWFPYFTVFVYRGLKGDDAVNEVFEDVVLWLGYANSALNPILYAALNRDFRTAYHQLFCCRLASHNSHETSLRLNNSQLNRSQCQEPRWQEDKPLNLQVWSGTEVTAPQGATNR

Structure (SMILES) | H₂ Antagonism (%) (H₂-receptor) | Inhibition (%) [1] [%] | Inhibition (%) (male Sprague-Dawley rats)
CNC(=NC#N)NCc1ccc(-c2csc(N=C(N)N)n2)o1 [Test Compound (b), 4-[5-(2-Cyano-3-methylguanidino)methylfuran-2-yl]-2-(diaminomethyleneamino)thiazole] | 90.7 | – | –
CNC(=O)NCc1ccc(-c2csc(N=C(N)N)n2)o1 [Test Compound (c)] | 89.1 | – | –
NC(N)=Nc1nc(-c2ccc(CC(N)=NS(N)(=O)=O)o2)cs1 [Test Compound (d), 4-[5-(2-Amino-2-aminosulfonyliminoethyl)furan-2-yl]-2-(diaminomethyleneamino)thiazole] | – | 99 | 86.6

From patent publication EP0355612B1, “Furylthiazole derivatives, processes for the preparation thereof and pharmaceutical composition comprising the same” (FUJISAWA PHARMACEUTICAL CO., LTD., priority 1988, dated 1990)
